Data taken from patent US9814761B2, “Compositions, methods and assays comprising amylin or amlyin analogs for abeta-peptide mediated disorders” (TRUSTEES OF BOSTON UNIVERSITY, priority 2012, dated 2017).
Entries after “also recorded” stand apart in the source; their conditions may differ.

Assays:
mouse models = assay: daily dosing in mouse models, memory functions; assay type: in vivo, mice
[1] = blood (stick) glucose monitored after pramlintide injection in two human subjects; assay type: in vivo; details: pramlintide 60 mcg s.c.
Protocol: (§1) Subcutaneous injections of one dose of pramlintide (60 mcg) was performed in two subjects followed in the research registry of the BU ADC, one control and one probable Alzheimer's disease. Blood was drawn to collect plasma samples before the injection and at 5, 30, 60 and 180 minutes after the injection. Vital signs and blood glucose were monitored at these time points and prior to discharge of the subject from the facility. One hour after the injection, the subjects were offered a standard meal. Plasma Aβ1-40 and Aβ1-42 were measured (Table 2). […] The human results provided herein are encouraging, in part, because the dose of pramlintide (60 mcg) used was only moderate.

plasma Aβ1-40 and Aβ1-42 = assay: pramlintide challenge in two human subjects, plasma Aβ1-40 and Aβ1-42; assay type: in vivo; details: pramlintide 60 mcg s.c.
Protocol: as §1

- Glucose ([1]; AD subject, post 5', pre-injection 85): 91 mg/dL
- Glucose ([1]; AD subject, post 30', pre-injection 85): 88 mg/dL
- Glucose ([1]; AD subject, post 60', pre-injection 85, standard meal offered one hour after injection): 135 mg/dL
- Glucose ([1]; AD subject, post 180', pre-injection 85, standard meal offered one hour after injection): 115 mg/dL
- Glucose ([1]; control subject, post 5', pre-injection 115): 108 mg/dL
- Glucose ([1]; control subject, post 30', pre-injection 115): 115 mg/dL
- Glucose ([1]; control subject, post 60', pre-injection 115, standard meal offered one hour after injection): 114 mg/dL
- Glucose ([1]; control subject, post 180', pre-injection 115, standard meal offered one hour after injection): 149 mg/dL
SMILES: CC[C@H](C)[C@H](NC(=O)[C@@H]1CCCN1C(=O)CNC(=O)[C@H](Cc1ccccc1)NC(=O)[C@H](CC(N)=O)NC(=O)[C@H](CC(N)=O)NC(=O)[C@H](CO)NC(=O)[C@H](CO)NC(=O)[C@H](Cc1c[nH]cn1)NC(=O)[C@@H](NC(=O)[C@H](CC(C)C)NC(=O)[C@H](Cc1ccccc1)NC(=O)[C@H](CC(N)=O)NC(=O)[C@H](C)NC(=O)[C@H](CC(C)C)NC(=O)[C@H](CCCNC(=N)N)NC(=O)[C@H](CCC(N)=O)NC(=O)[C@@H](NC(=O)[C@H](C)NC(=O)[C@@H]1CSSC[C@H](NC(=O)[C@@H](N)CCCCN)C(=O)N[C@@H](CC(N)=O)C(=O)N[C@@H]([C@@H](C)O)C(=O)N[C@@H](C)C(=O)N[C@@H]([C@@H](C)O)C(=O)N1)[C@@H](C)O)C(C)C)C(=O)N[C@@H](CC(C)C)C(=O)N1CCC[C@H]1C(=O)N1CCC[C@H]1C(=O)N[C@H](C(=O)N[C@@H](CC(N)=O)C(=O)N[C@H](C(=O)NCC(=O)N[C@@H](CO)C(=O)N[C@@H](CC(N)=O)C(=O)N[C@H](C(=O)N[C@@H](Cc1ccc(O)cc1)C(N)=O)[C@@H](C)O)C(C)C)[C@@H](C)O [pramlintide]
- memory functions / cognition (mouse models): increased memory functions; also recorded: led to cognitive improvements
- plasma Aβ1-42 (plasma Aβ1-40 and Aβ1-42; AD subject, post 5', pre-injection 27.0): 29.0 pg/mL
- plasma Aβ1-40 (plasma Aβ1-40 and Aβ1-42; AD subject, post 5', pre-injection 180.6): 160.8 pg/mL
- plasma Aβ1-42 (plasma Aβ1-40 and Aβ1-42; AD subject, post 30', pre-injection 27.0): 31.8 pg/mL
- plasma Aβ1-40 (plasma Aβ1-40 and Aβ1-42; AD subject, post 30', pre-injection 180.6): 161.0 pg/mL
- plasma Aβ1-42 (plasma Aβ1-40 and Aβ1-42; AD subject, post 60', pre-injection 27.0): 26.6 pg/mL
- plasma Aβ1-40 (plasma Aβ1-40 and Aβ1-42; AD subject, post 60', pre-injection 180.6): 129.4 pg/mL
- plasma Aβ1-42 (plasma Aβ1-40 and Aβ1-42; AD subject, post 180', pre-injection 27.0): 22.0 pg/mL
- plasma Aβ1-40 (plasma Aβ1-40 and Aβ1-42; AD subject, post 180', pre-injection 180.6): 104.6 pg/mL
- plasma Aβ1-42 (plasma Aβ1-40 and Aβ1-42; control subject, post 5', pre-injection 29.9): 26.0 pg/mL
- plasma Aβ1-40 (plasma Aβ1-40 and Aβ1-42; control subject, post 5', pre-injection 148.4): 178.4 pg/mL
- plasma Aβ1-42 (plasma Aβ1-40 and Aβ1-42; control subject, post 30', pre-injection 29.9): 27.5 pg/mL
- plasma Aβ1-40 (plasma Aβ1-40 and Aβ1-42; control subject, post 30', pre-injection 148.4): 150.4 pg/mL
- plasma Aβ1-42 (plasma Aβ1-40 and Aβ1-42; control subject, post 60', pre-injection 29.9): 21.7 pg/mL
- plasma Aβ1-40 (plasma Aβ1-40 and Aβ1-42; control subject, post 60', pre-injection 148.4): 110.5 pg/mL
- plasma Aβ1-42 (plasma Aβ1-40 and Aβ1-42; control subject, post 180', pre-injection 29.9): 10.6 pg/mL
- plasma Aβ1-40 (plasma Aβ1-40 and Aβ1-42; control subject, post 180', pre-injection 148.4): 100.8 pg/mL
